As usually defined, the logP is the decadic logarithm of the partition coefficient of the neutral form, usually between octanol and water. A higher logP goes with a more lipophilic compound.

The first series is described as follows: log P by HPLC. The note with it: EEC directive 79/831 Annex V. A8 by HPLC (gradient method, acetonitrile/0.1% aqueous phosphoric acid). Format: physicochemical.
`Cc1nc2nc(Cl)c(-c3c(F)cccc3Cl)c(N3CCCC(C)C3)n2n1` (centres unmarked) [compound 302] displayed a logP of 3.99. As for `CCN(Cc1ccco1)c1c(-c2c(F)cccc2F)c(Cl)nc2nc(C)nn12` [compound 340], the logP came out at 3.28. Same read-out and setting: the result for `Cc1nc2nc(Cl)c(-c3c(F)cc(F)cc3F)c(NC(C)C(C)C)n2n1` (centres unmarked) [compound 506] reads 3.35; that for `CCCN(CCOC)c1c(-c2c(F)cccc2F)c(Cl)nc2nc(C)nn12` [compound 348], 3.12. The same measure, in the same setting: in the case of `CCN(CCN(C)C)c1c(-c2ccc(F)cc2F)c(Cl)nc2nc(C)nn12` [compound 353] it was 1.37; in that of `CC(C)(C)OC(=O)NC1CCN(c2c(-c3ccc(F)cc3F)c(Cl)nc3nc(C4CC4)nn23)CC1` [compound 514], 3.78; in that of `CC(Nc1c(-c2c(F)cc(F)cc2F)c(Cl)nc2nc(C3CC3)nn12)C(F)(F)F` (centres unmarked) [compound 458], 3.58. The same measure, in the same setting: the result for `CN(CC1CC1(Cl)Cl)c1c(-c2c(F)cc(F)cc2F)c(Cl)nc2nc(C3CC3)nn12` (centres unmarked) [compound 509] reads 4.26.

The compound `Cc1nc2nc(Cl)c(-c3ccc(F)cc3F)c(N3CC(C)CC(C)C3)n2n1` (centres unmarked) [compound 451] came in with a logP of 4.16. The compound `CCOC(=O)CN(C)c1c(-c2c(F)cccc2Cl)c(Cl)nc2nc(C)nn12` [compound 272] had a logP of 2.48. In turn, `Cc1nc2nc(Cl)c(-c3c(F)cccc3F)c(NOCc3ccccc3Cl)n2n1` [compound 431] came in with a logP of 3.13.

`Fc1ccc(-c2c(Cl)nc3nc(C4CC4)nn3c2N2CCOCC2)c(F)c1` [compound 518]: the logP is 2.85. Same read-out and setting: the result for `CCNc1c(-c2c(F)cccc2F)c(Cl)nc2nc(C)nn12` [compound 419] reads 2.31; that for `Cc1nc2nc(Cl)c(-c3c(F)cccc3F)c(N3CCC(NC(=O)OC(C)(C)C)CC3)n2n1` [compound 321], 3.15. With `CCC(C)ONc1c(-c2ccccc2F)c(Cl)nc2nc(C)nn12` (centres unmarked) [compound 370], the logP came out at 2.87. In turn, `Clc1ccccc1-c1c(Cl)nc2nc(C3CC3)nn2c1N1CCCCC1` [compound 493] gave a logP of 4.27. Same read-out and setting: the result for `CCCCN(C)c1c(-c2c(F)cccc2F)c(Cl)nc2nc(C)nn12` [compound 338] reads 3.46.

On to `Fc1cc(F)c(-c2c(Cl)nc3nc(C4CC4)nn3c2N2CCCCN2)c(F)c1` [compound 487], for which the logP is 3.42. `CC(=O)CC(C)(C)Nc1c(-c2ccc(F)cc2F)c(Cl)nc2nc(C)nn12` [compound 407]: the logP is recorded as 2.53. Still for that read-out and setting: in the case of `Fc1cc(F)c(-c2c(Cl)nc3nc(C4CC4)nn3c2N2CCCCO2)c(F)c1` [compound 485] it was 3.74; in that of `Cc1nc2nc(Cl)c(-c3c(F)cccc3F)c(N(C)C)n2n1` [compound 418], 2.37; in that of `Cc1nc2nc(Cl)c(-c3ccccc3F)c(NC3CC3)n2n1` [compound 390], 2.41.

The series is the same for the next values; noted with them: HPLC, gradient method, acetonitrile/0.1% aqueous phosphoric acid; EEC directive 79/831 Annex V. A8.
As to `CCCN(CC1CCCO1)c1c(-c2ccccc2Cl)c(Cl)nc2nc(C)nn12` (centres unmarked) [compound 244], the lipophilicity (logP) was 3.7. Consider `Cc1nc2nc(Cl)c(-c3c(F)cccc3F)c(N(C)Cc3ccco3)n2n1` [compound 566], for which the logP came to 2.97. The same measure, in the same setting: the result for `Fc1cc(F)c(-c2c(Cl)nc3nc(C(F)(F)F)nn3c2NC2CC2)c(F)c1` [compound 35] reads 3.53.

The compound `Cc1nc2nc(Cl)c(-c3c(F)cccc3F)c(NOC(C)C)n2n1` [compound 144] displayed a logP of 2.46. `Fc1ccc(-c2c(Cl)nc3nc(C4CC4)nn3c2N2CCCC2)c(Cl)c1` [compound 634] yielded a logP of 3.72.

Compound `CCCN(CC1CC1)c1c(-c2ccccc2Cl)c(Cl)nc2nc(C)nn12` [compound 243] gave a logP of 4.07. Compound `CC(Nc1c(-c2ccc(F)cc2Cl)c(Cl)nc2nc(C3CC3)nn12)C(F)(F)F` (single isomer, unassigned) [compound 768] registered a logP of 3.77. With `CC1CCCCN1c1c(-c2ccc(F)cc2F)c(Cl)nc2nc(C3CC3)nn12` (centres unmarked) [compound 611], the log partition coefficient (logP) worked out at 4.3. Still for that read-out and setting: the result for `CN(C)c1c(-c2c(F)cc(F)cc2F)c(Cl)nc2nc(C(F)(F)F)nn12` [compound 100] reads 3.6. The same measure, in the same setting: the result for `CN(CC1OCCO1)c1c(-c2ccc(F)cc2F)c(Cl)nc2nc(C(F)(F)F)nn12` [compound 540] reads 3.62. On the same count and under the same terms, in the case of `C=C(C)CNc1c(-c2ccc(F)cc2F)c(Cl)nc2nc(C(F)(F)F)nn12` [compound 534] it was 3.75; in that of `C=C(C)CN(CC)c1c(-c2c(F)cc(F)cc2F)c(Cl)nc2nc(C(F)(F)F)nn12` [compound 10], 4.73; in that of `Cc1nc2nc(Cl)c(-c3ccc(F)cc3F)c(NCC(C)C)n2n1` [compound 191], 3.

The compound `C=C(C)CNc1c(-c2c(F)cc(F)cc2F)c(Cl)nc2nc(C)nn12` [compound 16] showed a logP of 2.76. In turn, `Fc1cc(F)c(-c2c(Cl)nc3nc(C4CC4)nn3c2N2CC=CCO2)c(F)c1` [compound 786] registered a logP of 3.56. The same measure, in the same setting: in the case of `Cc1nc2nc(Cl)c(-c3c(F)cc(F)cc3F)c(N(C)CC3OCCO3)n2n1` [compound 151] it was 2.67; in that of `Fc1ccc(-c2c(Cl)nc3nc(C4CC4)nn3c2N2CCCCC2)c(Cl)c1` [compound 635], 4.37; in that of `CCc1nc2nc(Cl)c(-c3c(F)cc(F)cc3F)c(N3CCCC3)n2n1` [compound 72], 3.29. The same measure, in the same setting: the result for `Fc1ccc(-c2c(Cl)nc3nc(C4CC4)nn3c2NC2CCCC2)c(Cl)c1` [compound 624] reads 4.13. Same read-out and setting: the result for `CC1CCCCN1c1c(-c2c(F)cccc2Cl)c(Cl)nc2nc(C3CC3)nn12` (centres unmarked) [compound 705] reads 4.54; that for `CC(C)C(C)Nc1c(-c2c(F)cccc2Cl)c(Cl)nc2nc(C3CC3)nn12` (centres unmarked) [compound 583], 4.12.

`Cc1nc2nc(Cl)c(-c3c(F)cc(F)cc3F)c(NNC(C)C)n2n1` [compound 28]: the logP is listed as 2.7. For the compound `Fc1ccc(-c2c(Cl)nc3nc(C(F)(F)F)nn3c2NC2CC2)c(F)c1` [compound 531], the logP was 3.49.

In the case of `Cc1nc2nc(Cl)c(-c3c(F)cccc3F)c(N(CCN)C(C)C)n2n1` [compound 571], the log partition coefficient (logP) is listed as 1.28. With `Fc1ccc(-c2c(Cl)nc3nc(C(F)(F)F)nn3c2N2CCSCC2)c(F)c1` [compound 810], the logP is listed as 4.04. Take `Cc1nc2nc(Cl)c(-c3ccc(F)cc3F)c(NC3CCCCC3)n2n1` [compound 197]: the logP came out at 3.46. As to `Cc1nc2nc(Cl)c(-c3c(F)cc(F)cc3F)c(N3CCCCC3C)n2n1` (centres unmarked) [compound 164], the logP is recorded as 3.81. The same measure, in the same setting: in the case of `CN(CC1OCCO1)c1c(-c2ccc(F)cc2F)c(Cl)nc2nc(C3CC3)nn12` [compound 663] it was 3.1; in that of `Cc1nc2nc(Cl)c(-c3ccccc3Cl)c(NC(C)C)n2n1` [compound 214], 2.75.

In the case of `Cc1nc2nc(Cl)c(-c3c(F)cc(F)cc3F)c(NC3CC3)n2n1` [compound 65], the logP is given as 2.51. `Cc1nc2nc(Cl)c(-c3c(F)cccc3F)c(N(C)CCN(C)C)n2n1` [compound 561]: the logP is listed as 1.28. The compound `Fc1ccc(-c2c(Cl)nc3nc(C4CC4)nn3c2NC2CCC(C(F)(F)F)CC2)c(F)c1` (centres unmarked) [compound 659] came in with a logP of 3.93. Take `Cc1nc2nc(Cl)c(-c3ccccc3Cl)c(N3CCC(C)CC3)n2n1` [compound 230]: the logP amounted to 3.94. Still for that read-out and setting: the result for `Cc1nc2nc(Cl)c(-c3ccc(F)cc3F)c(N3OCCC3C)n2n1` (centres unmarked) [compound 695] reads 2.79. `Cc1nc2nc(Cl)c(-c3c(F)cccc3F)c(NC(C)C(C)C)n2n1` (centres unmarked) [compound 684] gave a lipophilicity (logP) of 3.18. On the same count and under the same terms, the result for `C=C(C)CNc1c(-c2c(F)cccc2Cl)c(Cl)nc2nc(C)nn12` [compound 250] reads 2.8. Still for that read-out and setting: the result for `CCN(CC)c1c(-c2c(F)cccc2Cl)c(Cl)nc2nc(C)nn12` [compound 252] reads 3.33; that for `OC1CCN(c2c(-c3ccc(F)cc3F)c(Cl)nc3nc(C(F)(F)F)nn23)C1` (centres unmarked) [compound 555], 2.76.

On to `Fc1ccc(-c2c(Cl)nc3nc(C(F)(F)F)nn3c2N2CCc3ccccc3C2)c(F)c1` [compound 815], for which the logP was 4.35. Same read-out and setting: in the case of `C=C(C)CN(CC)c1c(-c2ccc(F)cc2F)c(Cl)nc2nc(C)nn12` [compound 96] it was 3.73; in that of `Cc1nc2nc(Cl)c(-c3c(F)cc(F)cc3F)c(N3CCCC(C)C3)n2n1` (centres unmarked) [compound 165], 3.9; in that of `Cc1nc2nc(Cl)c(-c3c(F)cccc3F)c(NC(C)C(F)(F)F)n2n1` (centres unmarked) [compound 182], 2.78. Take `Cc1ccc(Nc2c(-c3ccc(F)cc3F)c(Cl)nc3nc(C(F)(F)F)nn23)cc1` [compound 813]: the logP came to 4.08. The compound `CCCCNc1c(-c2ccc(F)cc2F)c(Cl)nc2nc(C(F)(F)F)nn12` [compound 526] came in with a logP of 4.07. Regarding `CCCN(CCOC)c1c(-c2ccc(F)cc2F)c(Cl)nc2nc(C)nn12` [compound 209], the logP came to 3.26. The compound `Fc1ccc(-c2c(Cl)nc3nc(C4CC4)nn3c2N2CCCC2C(F)(F)F)c(Cl)c1` (centres unmarked) [compound 639] returned a logP of 4.23. Same read-out and setting: the result for `C=C(C)CNc1c(-c2ccc(F)cc2F)c(Cl)nc2nc(C3CC3)nn12` [compound 657] reads 3.22; that for `Fc1ccc(-c2c(Cl)nc3nc(C(F)(F)F)nn3c2NC2CCC(C(F)(F)F)CC2)c(F)c1` (centres unmarked) [compound 537], 4.43; that for `Cc1nc2nc(Cl)c(-c3c(F)cc(F)cc3F)c(NCC#N)n2n1` [compound 18], 2.02. On the same count and under the same terms, the result for `COC(=O)C(COC(C)(C)C)Nc1c(-c2c(F)cc(F)cc2F)c(Cl)nc2nc(C)nn12` (centres unmarked) [compound 120] reads 3.47. Compound `CCN(CCN)c1c(-c2ccc(F)cc2F)c(Cl)nc2nc(C3CC3)nn12` [compound 724] returned a logP of 1.47. The same measure, in the same setting: in the case of `CCOC(=O)CN(C)c1c(-c2ccc(F)cc2F)c(Cl)nc2nc(C3CC3)nn12` [compound 717] it was 3.28.
